{"source": "patent US6995135B2", "about": "“Peptides and peptidomimetics having anti-proliferative activity and/or that augment nucleic acid damaging agents or treatments” (priority 2002, dated 2006)", "key": {"HUVEC [1]": {"tested_on": "HUVEC", "test": "Growth of normal human umbilical endothelial cells (HUVEC)", "format": "cell-based", "description": "Similar studies were performed using normal human umbilical endothelial cells (HUVEC)."}, "[2]": {"tested_on": "MIAPaCa2 human pancreatic carcinoma cells", "test": "MIAPaCa2 human pancreatic carcinoma subcutaneous tumor in scid mice", "format": "in vivo, mouse", "description": "To study in vivo efficacy of the compounds, MIAPaCa2 human pancreatic carcinoma cells were implanted subcutaneously in scid mice. The treatment was initiated when the size of the primary tumor became 0.1 cm3 (Day0) or larger, e.g., 7 or 8 mm in diameter. CDDP (3 mg/kg) and CBP 501 (10 or 40 mg/kg) were intra-peritoneally administered alone or in combination. Tumor sizes were measured using calipers three times a week, and volumes were calculated using the formula: weight(mg)=[width (mm)2×length (mm)]/2. Mean tumor sizes for each treatment group are plotted (n=4) against the days after the start of treatment (FIG. 10)."}, "MIAPaCa2 [3]": {"tested_on": "MIAPaCa2", "test": "Growth inhibition analysis of MIAPaCa2 using alamar blue", "format": "cell-based, human", "description": "The medium was changed and incubated an additional 24, 48 or 72 hour. Following incubation, 20 μl of alamarBlue 90% reagent was added to each well for another 6 hours for detection of cell viability by fluorescent intensity. Fluorescent intensity was measured using a Spectrafluor Plus plate reader with exitation 530 nm and emission 590 nm. The IC50 was calculated (Table 6)."}, "Jurkat cells [4]": {"tested_on": "Jurkat cells", "test": "G2 checkpoint abrogation in bleomycin treated Jurkat cells, flow cytometry", "format": "cell-based, human", "details": "Jurkat cells; with 40 μg/ml bleomycine, 24 hours; dose with detectable G2 checkpoint abrogation", "procedure": "Flow cytometry analysis of G2 checkpoint abrogation was performed using human leukemia derived Jurkat cell line. In brief, cultured cells were treated with various doses of peptide/peptidomimetic and 40 μg/ml bleomycine for 24 hr. The DNA of the cells was stained with propidium iodide and analyzed by flow cytometry.\nThe “Appearance of side effect when used alone” indicates the peptide/peptidomimetic dose that produced Jurkat cell cycle disturbance, i.e., the appearance of significant amounts of SubG1 cells (dead cells) or cells in which the DNA content of each varies more than usual. […] The “G2 abrogating dose” indicates the peptide/peptidomimetic dose with 40 μg/ml bleomycine that produced detectable G2 checkpoint abrogation activity following treatment for 24 hours. The “Appearance of side effect when used with colchicine” indicates the peptide/peptidomimetic dose with 5 μg/ml colchicine that produced Jurkat cell cycle disturbance following treatment for 24 hours."}, "[5]": {"test": "Mouse serum treatment analysis, residual peptide by HPLC", "format": "in vitro ADME", "details": "1 hr at 37 degree, read-out: Residual peptide after 1 hr human serum treatment (Mouse serum treatment analysis)"}, "Jurkat cells [6]": {"tested_on": "Jurkat cells", "test": "M phase checkpoint abrogation / non specific toxicity in colchicine treated Jurkat cells, flow cytometry", "format": "cell-based", "details": "0.5 μg/ml colchicine, up to 50 μM of peptide, FIG. 12", "description": "Cell-cycle analysis The cell cycle status of the cells treated with bleomycin or adriamcin were analyzed by flow cytometry as described by Kawabe (1997) Nature 385:454–458. In brief, two million cells were re-suspended and incubated in 200 μul Krishan's solution (0.1% Sodium citrate, 50 μg/ml PI, 20 μg/ml RNase A and 0.5% NP-40) for 1 hr at 4° C. and analyzed by a flow cytometry, FACScan™ (Beckton Dickinson, Mountain View, Calif.) with the program CELLQuest™ (Beckton Dickinson).\nFlow cytometry analysis of M phase checkpoint abrogation by the compounds was performed using human T cell leukemia Jurkat cell line treated with colchicine (5 μg/ml or 0.5 μg/ml) and various doses of peptide/peptidomimetics for 24 hr (FIG. 12). The DNA of the cells was stained and analyzed by flow cytometry as described above.\nThe “Appearance of side effect when used alone” indicates the peptide/peptidomimetic dose that produced Jurkat cell cycle disturbance, i.e., the appearance of significant amounts of SubG1 cells (dead cells) or cells in which the DNA content of each varies more than usual. […]\nA comparison between G2 checkpoint abrogating activity and non specific toxicity (M checkpoint abrogation) by CB501 was performed. […] The DNA amount in each of the treated cells was analyzed by flow cytometry, as previously described."}, "MIAPaCa2 [7]": {"tested_on": "MIAPaCa2", "test": "Sensitization of MIAPaCa2 to bleomycin or adriamycin, % sub-G1 cells by flow cytometry", "format": "cell-based, human", "details": "bleomycine 10 μg/ml or adriamycin 1 μg/ml, 3 hours then 21 hours", "description": "Cell culture A human T-cell leukemia-derived cell line, Jurkat, was cultured in RPMI 1640 (Sigma) supplemented with 10% fetal calf serum (IBL: Immuno-Biological Laboratories, Gunma, Japan) at 37° C./5% CO2. Human pancreatic cancer derived cell line, MIAPaCa2 was cultured in DMEM with 10% fetal calf serum at 37° C./5% CO2.\nThe G2 checkpoint abrogating activity of various compounds at different doses on human pancreatic cancer derived cell line MIAPaCa2 treated with bleomycine (Bleo) or adriamycin (ADR) was studied. Briefly, cells were incubated with the compounds and bleomycine (10 μg/ml) or adriamycin (1 μg/ml) for 3 hours. The medium was changed and incubated for an additional 21 hours. Harvested cells were stained for DNA by propium iodide and analyzed with flow cytometry as previously described. The % of the sub-G1 cell population is indicated as dead cells in FIG. 3."}, "[8]": {"tested_on": "MIAPaCa2 human pancreatic carcinoma cells", "test": "Colony formation analysis of MIAPaCa2 cells", "format": "cell-based", "details": "CBP501 with cisplatin or oxaliplatin (1, 3 or 9 μg/ml), three hours then 10 days", "procedure": "Briefly, cells were plated at 300 cells/well in 6 well plates, incubated overnight, and treated with the compounds for three hours. The medium was changed and cultured for an additional 10 days. Cells were subsequently fixed with 70% methanol, stained with 0.1% crystal violet and visualized."}, "HUVEC [9]": {"tested_on": "HUVEC", "test": "G2 checkpoint abrogation with cis-platin, flow cytometry", "format": "cell-based, human", "details": "normal G1 checkpoint, at least up to 50 μM CBP501", "description": "The medium was aspirated, fresh medium without these compounds was added and the cells were incubated for an additional 45 hr. The cells including floating cells were harvested using trypsin-EDTA solution, incubated with Krishan's solution and analyzed for DNA content by flow cytometry as previously described."}, "[10]": {"test": "Human serum treatment analysis, residual G2 checkpoint abrogating activity", "format": "in vitro ADME", "details": "d-type amino acid peptides compared with l-type peptide such as CBP413", "description": "Serum analysis was performed to determine the stability of peptides in mouse and human serum. Briefly, peptides (10 mM or 2.5 mM) were incubated with freshly prepared human serum at 37 degrees for 1 hr. CBP50 (10 mM) was incubated with freshly prepared mouse serum for 1 hr at 37 degree. Jurkat cells were treated with the serum with or without peptides and bleomycin (40 μg/ml) and incubated for 24 hr. The population of G2 phase cells was determined by flow cytometry as previously described. The residual G2 checkpoint abrogating activity of serum treated peptides were determined by comparing the % G2 cells of the treated serum and the standard curve produced with medium treated peptides, bleomycin and Jurkat cells (Table 5A)."}}, "note": "“Also recorded” adds a separate entry of the source. Square brackets hold non-standard residues; d marks the D form. Peptide text beside a SMILES is read from it. dPhe(F5) = N[C@H](Cc1c(F)c(F)c(F)c(F)c1F)C(=O)O; dBpa = N[C@H](Cc1ccc(C(=O)c2ccccc2)cc1)C(=O)O; dCha = N[C@H](CC1CCCCC1)C(=O)O", "data": [{"smiles": "N=C(N)NCCC[C@@H](NC(=O)[C@@H](CCCNC(=N)N)NC(=O)[C@@H](CCC(N)=O)NC(=O)[C@@H](CCCNC(=N)N)NC(=O)[C@@H](CCCNC(=N)N)NC(=O)[C@@H](CCCNC(=N)N)NC(=O)[C@@H](CC1CCCCC1)NC(=O)[C@@H](Cc1c(F)c(F)c(F)c(F)c1F)NC(=O)[C@@H](CO)NC(=O)[C@@H](Cc1c[nH]c2ccccc12)NC(=O)[C@@H](CO)NC(=O)[C@H](N)Cc1ccc(C(=O)c2ccccc2)cc1)C(=O)O", "note": "[CBP501, (d-Bpa)(d-Ser)(d-Trp)(d-Ser)(d-Phe-2,3,4,5,6-F)(d-Cha)(d-Arg)(d-Arg)(d-Arg)(d-Gln)(d-Arg)(d-Arg)] (H-[dBpa][dS][dW][dS][dPhe(F5)][dCha][dR][dR][dR][dQ][dR][dR]-OH; N-terminus and C-terminus assumed)", "values": [{"measurement": "Effect on growth of HUVEC cells, peptide alone (in words)", "setting": "HUVEC [1]", "value": "does not affect the growth of HUVEC cells"}, {"measurement": "Tumor growth, CBP501 treatment alone (in words)", "setting": "[2]; CBP501 10 or 40 mg/kg intra-peritoneal", "value": "suppresses the growth of human pancreatic cancer cell in vivo"}, {"measurement": "Anti-tumor activity of cisplatin in combination (in words)", "setting": "[2]; CDDP 3 mg/kg with CBP501 10 or 40 mg/kg intra-peritoneal", "value": "increased the anti-tumor activity of cisplatin"}, {"measurement": "Solubility in water (in words)", "setting": "Solubility in water", "value": "soluble in water"}, {"measurement": "Cell growth inhibition alone (in words)", "setting": "MIAPaCa2 [3]; compared with cisplatin", "value": "inhibits cell growth better than cisplatin in molar dose"}, {"measurement": "Cell growth suppression combined with 10 μM of cisplatin (in words)", "setting": "MIAPaCa2 [3]; with 10 μM cisplatin", "value": "suppressed cell growth at a much lower dose"}, {"measurement": "G2 abrogating dose", "setting": "Jurkat cells [4]", "value": "≧0.39 μM"}, {"measurement": "remaining at 1 h, 10 mM", "setting": "[5]", "value": "> 90", "unit": "%"}, {"measurement": "Non specific toxicity (M checkpoint abrogation) (in words)", "setting": "Jurkat cells [6]", "value": "absent; also recorded: does not affect M phase cell cycle arrest and/or non specific toxicity induced by colchicine"}, {"measurement": "Sensitization of MIAPaCa2 cells to bleomycin and adriamycin (% sub-G1, in words)", "setting": "MIAPaCa2 [7]", "value": "sensitized MIAPaCa2 cells to both bleomycin and adriamycin in a dose dependent manner"}, {"measurement": "Effect on cyto-toxic activity of cisplatin and oxaliplatin, colony formation (in words)", "setting": "[8]", "value": "enhanced the cyto-toxic activity of both cisplatin and oxaliplatin"}, {"measurement": "Sensitization of HUVEC cells to cisplatin (in words)", "setting": "HUVEC [9]", "value": "not sensitized"}, {"measurement": "Stability in serum (in words)", "setting": "[10]", "value": "more stable in serum"}]}]}
